Assay results from paper PMC12693419, “Design, Synthesis, Biological Evaluation, and In Silico Studies of Novel Multitarget Cinnamic Acid Hybrids” (Molecules, 2025).

Key:
ovine COX-2 = target: T1, ovine COX-2 (Ovis aries, UniProt P79208); test: In vitro inhibition of ovine cyclooxygenase-2
T1 sequence (P79208 17-603): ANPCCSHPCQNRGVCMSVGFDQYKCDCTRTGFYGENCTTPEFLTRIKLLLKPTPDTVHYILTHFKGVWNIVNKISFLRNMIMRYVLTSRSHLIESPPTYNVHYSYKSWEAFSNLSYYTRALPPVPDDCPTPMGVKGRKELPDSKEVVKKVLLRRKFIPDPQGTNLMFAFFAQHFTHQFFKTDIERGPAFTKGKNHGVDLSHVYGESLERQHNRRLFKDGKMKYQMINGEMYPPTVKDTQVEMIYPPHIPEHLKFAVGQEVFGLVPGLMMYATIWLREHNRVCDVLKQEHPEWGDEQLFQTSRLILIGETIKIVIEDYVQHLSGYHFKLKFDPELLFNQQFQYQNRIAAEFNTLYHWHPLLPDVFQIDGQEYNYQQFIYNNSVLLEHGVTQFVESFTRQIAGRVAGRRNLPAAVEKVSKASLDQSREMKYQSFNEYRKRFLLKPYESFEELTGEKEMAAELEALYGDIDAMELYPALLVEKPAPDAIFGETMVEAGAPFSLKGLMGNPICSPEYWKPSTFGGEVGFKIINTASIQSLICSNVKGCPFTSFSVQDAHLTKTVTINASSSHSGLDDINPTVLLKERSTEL
Experimental: In order to prevent this in the in vitro experiment used for testing COX inhibition activity of the new molecules, a co-substrate like N,N,N′,N′-tetramethyl-p-phenylenediamine (TMPD) is included, as it undergoes co-oxidation by PGG2. The oxidized TMPD has a maximum absorbance at 590 nm. […] To ensure maximum enzyme activity, heme is added to the reaction mixture during the in vitro assay for ovine COX-2 inhibition and COX-1 inhibition [63].
The in vitro COX-2 inhibitory activity was assessed using arachidonic acid (AA) as a substrate and N,N,N′,N′-tetramethyl-p-phenylenediamine (TMPD) as a co-substrate in a Tris-HCl buffer (pH 8.5), following the reported method [89]. To the test tube, 10 µL of the compound dissolved in DMSO was added to a mixture containing 730 µL of Tris-HCl buffer (pH 8.5), 50 µL of heme, 10 µL of COX-2 enzyme, and 100 µL of TMPD. The absorbance was measured at 590 nm. […] A blank determination was conducted as a negative control.

[1] = In vitro inhibition of linoleic acid lipid peroxidation (AAPH); conditions: 100 μM; anti-lipid peroxidation
From the text: In the present study, the aim was to evaluate the anti-lipid peroxidation activities of the synthesized compounds 5a–i, 6a–i, 9a–i, and 11 and compare their efficacy to that of Trolox, a well-known antioxidant. Using the water-soluble compound 2,2′-azobis(2-amidinopropane) hydrochloride (AAPH), peroxyl radicals are generated through spontaneous thermal decomposition in vitro. This experimental setup imitated the lipid peroxidation processes occurring in cells due to radical activity allowing the investigation of the effectiveness of the tested compounds under conditions resembling cellular oxidative stress.
An in vitro assay was performed following previously established protocols. The compound 2,2′-Azobis(2-methylpropionamidine) dihydrochloride (AAPH) was used as a controlled source of thermally generated alkylperoxy free radicals. The formation of conjugated diene hydroperoxides through the oxidation of sodium linoleate in an aqueous dispersion at 37 °C was measured by monitoring absorbance at 234 nm. The results were compared with the reference compound, Trolox (93%) (Table 6).

[2] = In vitro determination of NO release with Griess reagent; conditions: 100 μM, L-cysteine, pH 7.4, 37 °C, 60 min
From the text: This assay evaluates the ability of nitrate esters to release nitric oxide (NO). First, sodium nitroprusside (SNP) reacts with the thiol compound, cysteine, which serves as a reducing agent (Scheme 5). The thiol donates electrons, facilitating the breakdown of the nitroprusside complex. Afterwards, the reaction leads to the formation of intermediate complexes, such as nitrosothiol species and the decomposition of these intermediates results in the release of nitric oxide (NO). According to the literature, measurements are conducted both in the presence and absence of the thiol agent, cysteine. No significant difference was observed between the two experimental conditions, and the results were reproducible. Sodium nitroprusside (SNP) was used as the reference compound [65].
The compounds (from a 10 mM stock solution in DMSO, final concentration 100 μM) are added (20 μL) to each test tube. Then, 2 mL of phosphate buffer solution (pH 7.4) is added. L-cysteine, used as the thiol agent, is added to the mixture at a final concentration of 0.5 mM. The solution is incubated at 37 °C for 60 min, after which 1 mL is removed and mixed with 250 μL of Griess reagent (4 g sulfanilamide, 0.2 g N-(1-naphthyl)-ethylenediamine dihydrochloride, and 10 mL of H3PO4 solution, final volume adjusted to 100 mL). The mixture is allowed to stand for 10 min at room temperature, and the absorbance of the produced compound is measured at 540 nm. Sodium nitroprusside (SNP) is used as the reference compound. The results are presented as the release of NO2^− (% NO2^− (mol/mol)) induced by the compounds in the presence of L-cysteine (Table 6).

bovine serum albumin = target: T2, bovine serum albumin (Bos taurus, UniProt P02769); test: In vitro inhibition of albumin denaturation; conditions: heat denaturation, 60 °C 10 min
T2 construct: bovine serum albumin solution (fraction V); purchased Merck and Sigma-Aldrich; host or cells: bovine serum (fraction V)
T2 sequence (P02769 25-607): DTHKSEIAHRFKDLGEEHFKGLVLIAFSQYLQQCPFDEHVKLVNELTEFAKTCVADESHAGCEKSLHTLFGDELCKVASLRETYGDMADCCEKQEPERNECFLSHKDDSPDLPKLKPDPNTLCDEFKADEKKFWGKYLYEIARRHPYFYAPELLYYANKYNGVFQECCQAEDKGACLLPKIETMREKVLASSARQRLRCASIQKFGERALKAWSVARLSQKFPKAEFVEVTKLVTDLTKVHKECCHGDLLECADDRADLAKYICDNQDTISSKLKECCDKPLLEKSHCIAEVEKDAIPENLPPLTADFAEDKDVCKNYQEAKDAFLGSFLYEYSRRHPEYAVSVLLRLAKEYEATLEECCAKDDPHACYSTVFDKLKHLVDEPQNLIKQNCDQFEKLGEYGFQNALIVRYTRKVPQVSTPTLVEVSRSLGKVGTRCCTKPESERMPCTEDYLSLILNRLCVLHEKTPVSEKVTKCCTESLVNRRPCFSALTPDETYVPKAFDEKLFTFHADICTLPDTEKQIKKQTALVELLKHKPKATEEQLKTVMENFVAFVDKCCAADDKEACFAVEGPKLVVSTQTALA
Experimental: The ability of a compound to inhibit the thermal denaturation of albumin is considered an indicator of anti-inflammatory activity. Heat exposure simulates conditions of cellular stress or inflammation, during which protein and tissue damage occur. Certain substances can protect proteins from denaturation upon heating by stabilizing their structure and preventing aggregation and precipitation.
Inhibition of albumin denaturation was measured following the reported method. In a test tube, 1 mL of bovine serum albumin solution (fraction V, 1% w/v in phosphate buffer, pH 7.4) and 100 μL of the test compound solution were added sequentially. The mixture was incubated at 37 °C for 15 min, followed by heating at 60 °C for 10 min. After cooling to room temperature, the absorbance was measured at 660 nm. DMSO was used as the blank, and the results were compared to acetylsalicylic acid, which served as the reference compound (Table 6).

[3] = target: T3, soybean lipoxygenase isoenzyme-1 (SLOX-1) (Glycine max, UniProt P08170); test: In vitro inhibition of soybean lipoxygenase; format: biochemical; conditions: for IC50: pH 9.0, read-out: LOX Inh. IC50; for LOX Inh. IC50: pH 9.0
T3 construct: purchased Merck and Sigma-Aldrich
T3 sequence (P08170 1-839): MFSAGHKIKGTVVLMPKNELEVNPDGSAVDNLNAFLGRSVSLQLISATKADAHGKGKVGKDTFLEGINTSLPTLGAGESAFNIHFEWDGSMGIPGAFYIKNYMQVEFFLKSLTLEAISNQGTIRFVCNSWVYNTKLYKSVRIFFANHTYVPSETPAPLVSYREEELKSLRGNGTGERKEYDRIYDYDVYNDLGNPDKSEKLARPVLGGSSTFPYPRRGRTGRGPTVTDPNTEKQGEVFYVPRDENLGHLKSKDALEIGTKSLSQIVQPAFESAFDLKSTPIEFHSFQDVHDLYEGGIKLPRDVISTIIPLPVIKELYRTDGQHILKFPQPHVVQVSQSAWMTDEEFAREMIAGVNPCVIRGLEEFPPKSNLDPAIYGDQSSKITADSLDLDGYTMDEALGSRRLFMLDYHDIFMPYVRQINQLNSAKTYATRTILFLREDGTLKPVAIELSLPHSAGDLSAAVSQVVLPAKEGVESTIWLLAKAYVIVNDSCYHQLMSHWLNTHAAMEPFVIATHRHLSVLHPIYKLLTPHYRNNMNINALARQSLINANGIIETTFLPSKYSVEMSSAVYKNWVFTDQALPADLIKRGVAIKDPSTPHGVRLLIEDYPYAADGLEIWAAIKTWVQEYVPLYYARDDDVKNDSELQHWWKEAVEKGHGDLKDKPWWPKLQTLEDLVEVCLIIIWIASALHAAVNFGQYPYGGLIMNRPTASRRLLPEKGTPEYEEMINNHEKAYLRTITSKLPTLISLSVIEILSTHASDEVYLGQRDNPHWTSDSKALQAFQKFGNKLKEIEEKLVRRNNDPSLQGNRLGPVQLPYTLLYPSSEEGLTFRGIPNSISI
Experimental: In vitro anti-LOX activities were evaluated using soybean lipoxygenase isoenzyme-1 (SLOX-1), a commonly used model for mammalian LOXs.
An in vitro study was conducted following a previously reported method. The tested compounds were dissolved in DMSO (100 µM) and incubated at room temperature with 0.1 mL of sodium linoleate as the substrate and 0.2 mL of soybean lipoxygenase solution in Tris-HCl buffer (pH 9.0).

HeLa cells = test: MTT viability assay; format: cell-based; conditions: Homo sapiens
Experimental: (§1) HeLa, MCF-7, U251, U87, MDA-MB-435, and MDA-MB-231 cancer cell lines were maintained in incubators at 37 °C with 5% CO2 in DMEM medium supplemented with 10% (v/v) fetal bovine serum (FBS) and antibiotics/antimycotics. All cell lines used in this study originate from the Laboratory of Biochemistry, Department of Chemistry, Aristotle University of Thessaloniki. They are low-passage, mycoplasma-free cancer cell lines that have been extensively used over the past 25 years in numerous studies across various fields of cancer research, including drug cytotoxicity testing.
(§2) All cell lines tested were seeded in 96-well plates at a concentration of 6 × 10^3 cells per well, except HeLa, which were seeded at 3 × 10^3 cells per well. The day after, cells were exposed to increasing concentrations of the compounds for 48 h. Cell viability was determined using the 3-(4,5-dimethylthiazol-2-yl)-2,5-diphenyltetrazolium bromide (MTT) assay, a colorimetric assessment of cellular metabolic activity as described previously. Absorbance values from treated samples were normalized to those of untreated controls, which were assigned to a 100% viability value.

MCF-7 cells = test: MTT viability assay; format: cell-based; conditions: Homo sapiens, MCF7, 48 h
Experimental: as §1, §2

| SMILES | COX-2 Inh. IC50 (ovine COX-2) | AAPH Inh. at 100 μΜ [1] | %NO2^− Release mol/mol at 100 μΜ [2] | Albumin (inhibition of albumin denaturation) (bovine serum albumin) | IC50 [3] [µM] | LOX Inh. IC50 [3] | EC50 (HeLa cells; 48 h) [µM] | EC50 (MCF-7 cells) [µM] | IC50 (HeLa cells; 48 h of exposure, read-out: IC50 in HeLa cells (positive control)) [µM] |
| --- | --- | --- | --- | --- | --- | --- | --- | --- | --- |
| C/C(=N\O)c1ccc(NC(=O)COC(=O)/C=C/c2cc3ccccc3o2)cc1 [Compound 6f, 2-((4-((E)-1-(Hydroxyimino)ethyl)phenyl)amino)-2-oxoethyl (E)-3-(benzofuran-2-yl)acrylate] | no | no | 0.3% | no | 61 | – | – | – | – |
| O=C(C=Cc1ccccc1)OCc1c(-c2ccccc2)no[n+]1[O-] [Compound 9a, 3-((Cinnamoyloxy)methyl)-4-phenyl-1,2,5-oxadiazole 2-oxide] | no | 91.6% | 20% | no | 3.5 | – | – | – | – |
| O=C(C=Cc1cccc2ccccc12)OCc1c(-c2ccccc2)no[n+]1[O-] [Compound 9b, 3-(((3-(Naphthalen-1-yl)acryloyl)oxy)methyl)-4-phenyl-1,2,5-oxadiazole 2-oxide] | no | 84% | 1.2% | no | – | no | – | – | – |
| O=C(/C=C/c1cccs1)OCc1c(-c2ccccc2)no[n+]1[O-] [Compound 9c, (E)-4-Phenyl-3-(((3-(thiophen-2-yl)acryloyl)oxy)methyl)-1,2,5-oxadiazole 2-oxide] | no | 73.3% | 1.2% | no | – | no | – | – | – |
| O=C(/C=C/c1ccco1)OCc1c(-c2ccccc2)no[n+]1[O-] [Compound 9d, (E)-3-(((3-(Furan-2-yl)acryloyl)oxy)methyl)-4-phenyl-1,2,5-oxadiazole 2-oxide] | no | 78% | no | no | 63 | – | – | – | – |
| O=C(/C=C/c1cc2ccccc2o1)OCc1c(-c2ccccc2)no[n+]1[O-] [Compound 9f, (E)-3-(((3-(Benzofuran-2-yl)acryloyl)oxy)methyl)-4-phenyl-1,2,5-oxadiazole 2-oxide] | no | 97% | no | no | 70 | – | – | – | – |
| O=C(OCc1c(-c2ccccc2)no[n+]1[O-])/C(=C/c1ccccc1)c1ccccc1 [Compound 9g, (E)-3-(((2,3-Diphenylacryloyl)oxy)methyl)-4-phenyl-1,2,5-oxadiazole 2-oxide] | no | 90% | 3% | no | 55.5 | – | 46.6 | > 100 | – |
| O=C(OCc1c(-c2ccccc2)no[n+]1[O-])/C(=C/c1cccc2ccccc12)c1ccccc1 [Compound 9h, (E)-3-(((3-(Naphthalen-1-yl)-2-phenylacryloyl)oxy)methyl)-4-phenyl-1,2,5-oxadiazole 2-oxide] | no | 94.5% | no | no | 10 | – | – | – | – |
| O=C(C=Cc1ccccc1)OCCOc1no[n+]([O-])c1S(=O)(=O)c1ccccc1 [Compound 11, 4-(2-(Cinnamoyloxy)ethoxy)-3-(phenylsulfonyl)-1,2,5-oxadiazole 2-oxide] | no | 90% | 11% | no | – | complete loss of activity and no | – | – | – |
| COc1cccc2c1C(=O)c1c(O)c3c(c(O)c1C2=O)C[C@@](O)(C(=O)CO)C[C@@H]3O[C@H]1C[C@H](N)[C@H](O)[C@H](C)O1 [doxorubicin, reference compound] | – | – | – | – | – | – | – | – | ~0.5 |
